Laboratory results as given in article PMC12307812 (Nature Communications, 2025).
Read-outs that look alike come from different tables or passages of the source.

Experiments:
[1] = test system: Calu-3 cells; assay: Analysis of cell viability (CellTiter-Glo); type: cell-based, human; conditions: 24 h, Supplementary Fig. S6
Protocol: Cells incubated with a medium containing DMSO (solvent) served as controls. Cell viability was assessed using the CellTiter-Glo® Luminescent Cell Viability Assay (Promega) according to the manufacturer’s instructions. Data normalization was performed as follows: cell viability in the absence of inhibitor (DMSO-only samples) was set as 100% and the relative viability of cells incubated with the respective inhibitor concentrations was calculated.

[2] = test system: pseudovirus bearing S protein of MERS-CoV; assay: organism not typed; type: cell-based
[3] = test system: pseudoviruses carrying diverse coronavirus S proteins; type: cell-based
[4] = test system: SARS-CoV-2 isolate hCoV-19/Germany/FI1103201/2020; assay: microbe, parasite or virus in culture; type: cell-based
[5] = test system: pseudovirus bearing S protein of SARS-CoV-2 lineage EG.5.1; assay: organism not typed; type: cell-based
[6] = test system: pseudovirus bearing VSV-G; assay: organism not typed; type: cell-based; conditions: Calu-3
[7] = test system: vesicular stomatitis virus (VSV); type: cell-based; conditions: for mean log10(PFU/ml): VSV
[8] = test system: pseudovirus bearing S protein of SARS-CoV-2 lineage B.1; assay: organism not typed; type: cell-based
[9] = test system: pseudovirus bearing S protein of SARS-CoV-2 lineage BA.2.86; assay: organism not typed; type: cell-based
[10] = test system: pseudovirus bearing S protein of HCoV-NL63; assay: organism not typed; type: cell-based
[11] = target: T1, Recombinant Human TMPRSS2 (Homo sapiens, UniProt O15393); assay: TMPRSS2 biochemical assay (Boc-Gln-Ala-Arg-AMC fluorogenic substrate)
T1 construct: human TMPRSS2 residues 106492, N-terminal 6x His-tag; 6x His-tag (N); purchased Cusabio CSB-YP023924HU; host or cells: yeast
T1 sequence (O15393 106-492 limits assumed): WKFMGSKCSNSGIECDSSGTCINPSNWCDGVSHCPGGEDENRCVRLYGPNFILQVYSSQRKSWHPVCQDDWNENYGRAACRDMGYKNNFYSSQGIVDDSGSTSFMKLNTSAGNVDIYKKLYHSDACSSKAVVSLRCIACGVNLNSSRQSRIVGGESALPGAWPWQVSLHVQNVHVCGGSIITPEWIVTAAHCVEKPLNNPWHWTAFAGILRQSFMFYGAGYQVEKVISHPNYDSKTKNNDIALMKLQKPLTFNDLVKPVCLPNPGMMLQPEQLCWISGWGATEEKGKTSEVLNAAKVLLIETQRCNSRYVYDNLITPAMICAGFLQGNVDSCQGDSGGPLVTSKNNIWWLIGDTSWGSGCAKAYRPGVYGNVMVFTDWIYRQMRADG
Protocol: Inhibitors of TMPRSS2 were tested using a high throughput activity assay. […] TMPRSS2 (5 µl, 0.018 mg/ml) in assay buffer (50 mM Tris pH 8, 150 mM NaCl, 0.01% Tween20) was dispensed to that, using a BioRAPTR (Beckman Coulter), for a total assay volume of 5 µl.
After incubation at room temperature for 1 h, fluorescence was measured. […] Raw plate reads for each titration point were normalized relative to a positive control containing no enzyme (0% activity, full inhibition) and a negative control containing DMSO-only wells (100% activity, basal activity). Data normalization was performed using GraphPad Prism (GraphPad Software, San Diego, CA).
We employed the curve fitting algorithm available in the SciPy package (version 1.10.1)[61] to derive the Hill slope and the IC50 value, along with their corresponding error estimates.

[12] = test system: pseudovirus bearing S protein of SARS-CoV-2 lineage B.1.617.2; assay: organism not typed; type: cell-based
[13] = Calu-3, read-out: mean inhibition

CC(C)(C)NC(=O)N1CCN(C(=O)N2C(=O)C(CCCNC(=N)N)C2C(=O)O)CC1 (stereo not drawn) [BMS-262084]
cytotoxicity at concentrations used for preincubation [1]: noncytotoxic
IC50 ([2]; Calu-3, read-out: IC50 estimate, pseudovirus cell entry MERS-S): 101 ± 24.2 nM
inhibition at 0.00025 µM ([2]; Calu-3, concentration 0.25 nM): 0.787%
inhibition at 0.0025 µM ([2]; Calu-3, concentration 2.5 nM): -4.71%
inhibition at 0.025 µM ([2]; Calu-3, concentration 25 nM): 29.1%
inhibition at 0.25 µM ([2]; Calu-3, concentration 250 nM): 67.2%
inhibition at 2.5 µM ([2]; Calu-3, concentration 2500 nM): 89.3%
inhibition at 25 µM ([2]; Calu-3, concentration 25000 nM): 93%
fold more potent than camostat (lower IC50) [3]: ~2 fold
fold more potent than camostat (lower IC50) ([3]; SARS-CoV-2 lineages B.1, B.1.617.2, EG.5.1, BA.2.86, Calu-3 cells): 3–8 fold
IC50 ([4]; Severe acute respiratory syndrome coronavirus 2, Calu-3, 24 h, read-out: IC50, relative infectivity of SARS-CoV-2): 510 nM
IC50 ([4]; Severe acute respiratory syndrome coronavirus 2, Calu-3 cells, Figure S5, read-out: IC50 estimate, SARS-CoV-2 entry inhibition): 509 ± 146 nM
inhibition at 0.00025 µM ([5]; Calu-3, EG.5.1, concentration 0.25 nM): 10.3%
inhibition at 0.0025 µM ([5]; Calu-3, EG.5.1, concentration 2.5 nM): 16.8%
inhibition at 0.025 µM ([5]; Calu-3, EG.5.1, concentration 25 nM): 26.9%
inhibition at 0.25 µM ([5]; Calu-3, EG.5.1, concentration 250 nM): 51.3%
inhibition at 2.5 µM ([5]; Calu-3, EG.5.1, concentration 2500 nM): 58.1%
inhibition at 25 µM ([5]; Calu-3, EG.5.1, concentration 25000 nM): 57.8%
fold less efficient inhibition of EG.5.1-S entry compared to B.1-S, B.1.617.2-S or BA.2.86-S ([5]; Calu-3 cells): 20–50 fold
IC50 ([5]; Calu-3 cells, Fig. 4g, read-out: IC50 estimate, pseudovirus cell entry EG.5.1): 1200 ± 763 nM
IC50 ([5]; Calu-3 cells, read-out: IC50, EG.5.1-S protein-driven Calu-3 cell entry): 1200 nM
inhibition at 0.00025 µM ([6]; concentration 0.25 nM): 2.19%
inhibition at 0.0025 µM ([6]; concentration 2.5 nM): 1.17%
inhibition at 0.025 µM ([6]; concentration 25 nM): 1.08%
inhibition at 0.25 µM ([6]; concentration 250 nM): 0.456%
inhibition at 2.5 µM ([6]; concentration 2500 nM): 0.565%
inhibition at 25 µM ([6]; concentration 25000 nM): -2.28%
effect on VSV infection [7]: not affected
mean log10(PFU/ml) ([7]; concentration 5 nM): 9.0266 log10(PFU/ml)
mean log10(PFU/ml) ([7]; concentration 50 nM): 9.0323 log10(PFU/ml)
mean log10(PFU/ml) ([7]; concentration 500 nM): 9.005 log10(PFU/ml)
mean log10(PFU/ml) ([7]; concentration 5000 nM): 9 log10(PFU/ml)
mean log10(PFU/ml) ([7]; concentration 50000 nM): 9.006 log10(PFU/ml)
inhibition at 0.00025 µM ([8]; Calu-3, B.1, concentration 0.25 nM): 7.25%
inhibition at 0.0025 µM ([8]; Calu-3, B.1, concentration 2.5 nM): 11.1%
inhibition at 0.025 µM ([8]; Calu-3, B.1, concentration 25 nM): 52.1%
inhibition at 0.25 µM ([8]; Calu-3, B.1, concentration 250 nM): 86.2%
inhibition at 2.5 µM ([8]; Calu-3, B.1, concentration 2500 nM): 92.8%
inhibition at 25 µM ([8]; Calu-3, B.1, concentration 25000 nM): 93.3%
IC50 ([8]; Calu-3 cells, read-out: IC50, pseudovirus cell entry B.1): 24.5 nM
inhibition at 0.00025 µM ([9]; Calu-3, BA.2.86, concentration 0.25 nM): 2.76%
inhibition at 0.0025 µM ([9]; Calu-3, BA.2.86, concentration 2.5 nM): 1.45%
inhibition at 0.025 µM ([9]; Calu-3, BA.2.86, concentration 25 nM): 44.5%
inhibition at 0.25 µM ([9]; Calu-3, BA.2.86, concentration 250 nM): 74.7%
inhibition at 2.5 µM ([9]; Calu-3, BA.2.86, concentration 2500 nM): 89.7%
inhibition at 25 µM ([9]; Calu-3, BA.2.86, concentration 25000 nM): 98.9%
IC50 ([9]; Calu-3 cells, read-out: IC50, pseudovirus cell entry BA.2.86): 48.2 nM
IC50 ([10]; Calu-3, read-out: IC50 estimate, pseudovirus cell entry NL63-S): 432 ± 223 nM
inhibition at 0.00025 µM [10, 13]: -0.475%
inhibition at 0.0025 µM [10, 13]: 8.77%
inhibition at 0.025 µM [10, 13]: 16.9%
inhibition at 0.25 µM [10, 13]: 57.8%
inhibition at 2.5 µM [10, 13]: 66.8%
inhibition at 25 µM [10, 13]: 73.5%
inhibition at 75.27 pM ([11]; concentration 0.0752671 nM): 1.73%
inhibition at 0.000225801 µM ([11]; concentration 0.225801 nM): 16.6%
inhibition at 0.000677404 µM ([11]; concentration 0.677404 nM): 22.3%
inhibition at 0.00203221 µM ([11]; concentration 2.03221 nM): 54.4%
inhibition at 0.00609663 µM ([11]; concentration 6.09663 nM): 77.8%
inhibition at 0.0182899 µM ([11]; concentration 18.2899 nM): 91.4%
inhibition at 0.0548697 µM ([11]; concentration 54.8697 nM): 94.8%
inhibition at 0.164609 µM ([11]; concentration 164.609 nM): 99.3%
inhibition at 0.493827 µM ([11]; concentration 493.827 nM): 97.2%
inhibition at 1.48148 µM ([11]; concentration 1481.48 nM): 99%
inhibition at 4.44444 µM ([11]; concentration 4444.44 nM): 98%
inhibition at 13.3333 µM ([11]; concentration 13333.3 nM): 98.8%
inhibition at 40 µM ([11]; concentration 40000 nM): 93.2%
IC50 ([11]; read-out: IC50, inhibition in TMPRSS2 biochemical assay): 1.82 nM
inhibition at 0.00025 µM ([12]; Calu-3, B.1.617.2, concentration 0.25 nM): -3.95%
inhibition at 0.0025 µM ([12]; Calu-3, B.1.617.2, concentration 2.5 nM): 6%
inhibition at 0.025 µM ([12]; Calu-3, B.1.617.2, concentration 25 nM): 32.3%
inhibition at 0.25 µM ([12]; Calu-3, B.1.617.2, concentration 250 nM): 82.7%
inhibition at 2.5 µM ([12]; Calu-3, B.1.617.2, concentration 2500 nM): 96.1%
inhibition at 25 µM ([12]; Calu-3, B.1.617.2, concentration 25000 nM): 96.1%
IC50 ([12]; Calu-3 cells, read-out: IC50, pseudovirus cell entry B.1.617.2): 52.5 nM
